Holding throughout (type): binding
The target in assay [1] is T1, TAF3 P881F (GST-tagged PHD) (Mus musculus, UniProt Q5HZG4, P881F).
T1 construct: Mus musculus Taf3-PHD domain (residues 857–924); made in house; host or cells: E. coli BL21(DE3)
T1 sequence (Q5HZG4 857-924 P881F): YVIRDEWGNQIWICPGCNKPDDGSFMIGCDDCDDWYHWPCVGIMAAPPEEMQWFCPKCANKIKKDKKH
The assay can be described thus: ITC of GST-tagged Taf3-PHD P881F. From the text:
(§1) The coding sequences of Mus musculus Taf3-PHD domain (residues 857–924) and Homosapiens PHF2 (1–66), PHF8 (37–102), and BPTF(2) (2865–2921) were cloned into the pGEX2T-derived vector, pRP265NB, for bacterial expression of GST-tagged proteins. Note that the PHD fingers of M. musculus Taf3 and H. sapiens TAF3 differ in a single amino acid. A901 in mouse corresponds to T899 in human. Here, amino acid numbering corresponds to mouse Taf3 isoform 1 with UniProt ID: Q5HZG4, accessible at https://www.uniprot.org/uniprotkb/Q5HZG4/entry. Single or double mutations were introduced by mutagenesis polymerase chain reaction and validated by Sanger sequencing. A single colony of freshly transformed BL21(DE3) Escherichia coli bacteria with the corresponding construct was grown in Luria broth (LB) medium supplemented with 50 μg/ml ampicillin until an OD600 of 0.7. […]
(§2) ITC experiments were performed at 20°C with a MicroCal VP-ITC microcalorimeter (Malvern) by sequential injection of 10 μl at 300 μM histone peptide during 20 s into the sample cell containing 30 or 15 μM of GST-Taf3 (wild type or mutant) or GST-BPTF, GST-PHF2, and GST-PHF8 PHDs in ITC buffer (100 mM NaCl, 20 mM Tris–HCl, pH 7.5). […] ITC data were subsequently analysed and fitted with the one-site binding model in the MicroCal ITC Origin Analysis software 7.0 (Table 1, Figs 3B and 5A, Supplementary Table S3, and Supplementary Fig. S10). […]

The target in assay [2] is T2, TAF3 W894L (GST-tagged PHD) (Mus musculus, UniProt Q5HZG4, W894L).
T2 construct: Mus musculus Taf3-PHD domain (residues 857–924); made in house; host or cells: E. coli BL21(DE3)
T2 sequence (Q5HZG4 857-924 W894L): T1 sequence (Q5HZG4 857-924 P881F) with F25P, W38L
The assay can be described thus: ITC of GST-tagged Taf3-PHD W894L.
From the text: as §1, §2

Assay [3] addresses T3, TAF3 P881E W894F (GST-tagged PHD) (Mus musculus, UniProt Q5HZG4, P881E/W894F).
T3 construct: Mus musculus Taf3-PHD domain (residues 857–924); made in house; host or cells: E. coli BL21(DE3)
T3 sequence (Q5HZG4 857-924 P881E/W894F): T1 sequence (Q5HZG4 857-924 P881F) with F25E, W38F
The assay can be described thus: ITC of GST-tagged Taf3-PHD P881E W894F.
From the text: as §1, §2

In assay [4] the target is T4, BPTF(2) PHD (2865–2921, GST-tagged) (Homo sapiens, UniProt Q12830).
T4 construct: BPTF(2) (2865–2921); made in house; host or cells: E. coli BL21(DE3)
The assay can be described thus: ITC of GST-tagged BPTF(2) PHD.
From the text: as §1, §2

In assay [5] the target is T5, PHF2 PHD (1–66, GST-tagged) (Homo sapiens, UniProt O75151).
T5 construct: PHF2 (1–66); made in house; host or cells: E. coli BL21(DE3)
T5 sequence (O75151 1-66): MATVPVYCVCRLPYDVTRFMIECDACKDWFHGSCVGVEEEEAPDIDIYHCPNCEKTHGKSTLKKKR
As to the kind of experiment: ITC of GST-tagged PHF2 PHD.
From the text: as §1, §2

Setting [6] is: ITC, 20°C, 100 mM NaCl, 20 mM Tris–HCl, pH 7.5, one-site model, ± = standard error of fit, read-out: K D.

Positions count from the first letter of the chain named. Read-outs that look alike come from different tables or passages of the source.

As for `C[C@H](N)C(=O)N[C@@H](CCCNC(=N)N)C(=O)N[C@H](C(=O)N[C@@H](CCCC[N+](C)(C)C)C(=O)N[C@@H](CCC(N)=O)C(=O)N[C@H](C(=O)N[C@@H](C)C(=O)N[C@@H](CCCNC(=N)N)C(=O)N[C@@H](CCCCN)C(=O)N[C@@H](CO)C(=O)N[C@H](C(=O)NCC(N)=O)[C@@H](C)O)[C@@H](C)O)[C@@H](C)O` [H3K4me3], the Kd in assay [1] (setting [6]) is 130 ± 4 nM; in assay [2] (setting [6]), 595 ± 35 nM; in assay [3] (setting [6]), 123 ± 10 nM; in assay [4] (setting [6]), 1300 ± 49 nM; in assay [5] (setting [6]), 286 ± 23 nM.
For `C[C@H](N)C(=O)N[C@@H](CCCNC(=N)N)C(=O)N[C@H](C(=O)N[C@@H](CCCC[N+](C)(C)C)C(=O)N[C@@H](CCC(=O)NCCc1c[nH]c2ccc(O)cc12)C(=O)N[C@H](C(=O)N[C@@H](C)C(=O)N[C@@H](CCCNC(=N)N)C(=O)N[C@@H](CCCCN)C(=O)N[C@@H](CO)C(=O)N[C@H](C(=O)NCC(N)=O)[C@@H](C)O)[C@@H](C)O)[C@@H](C)O` [H3K4me3Q5ser], the Kd was 124 ± 7 nM in assay [1]; 324 ± 18 nM in assay [2]; 111 ± 14 nM in assay [3]; 1240 ± 50 nM in assay [4]; 201 ± 22 nM in assay [5].

The values above are taken from publication PMC12238850, “Molecular determinants for recognition of serotonylated chromatin” (Nucleic Acids Research, 2025).
